Measurements from patent publication US5352690A, “1,2,4-trioxygenated benzene derivatives useful as leukotriene antagonists” (Eli Lilly and Company, priority 1992, dated 1994).
Structures can show the parent of a compound that is named as a salt.

What was measured:
[1] = biological target: [^3 H]-LTB4 binding, guinea pig lung membranes (Cavia porcellus, UniProt H0VYV8); test: [^3 H]-LTB4 Radioligand Binding Assay in Guinea Pig Lung Membranes; details: read-out: Binding Guinea Pig Lung pKi (converted)
Sequence of [^3 H]-LTB4 binding, guinea pig lung membranes (H0VYV8 1-348): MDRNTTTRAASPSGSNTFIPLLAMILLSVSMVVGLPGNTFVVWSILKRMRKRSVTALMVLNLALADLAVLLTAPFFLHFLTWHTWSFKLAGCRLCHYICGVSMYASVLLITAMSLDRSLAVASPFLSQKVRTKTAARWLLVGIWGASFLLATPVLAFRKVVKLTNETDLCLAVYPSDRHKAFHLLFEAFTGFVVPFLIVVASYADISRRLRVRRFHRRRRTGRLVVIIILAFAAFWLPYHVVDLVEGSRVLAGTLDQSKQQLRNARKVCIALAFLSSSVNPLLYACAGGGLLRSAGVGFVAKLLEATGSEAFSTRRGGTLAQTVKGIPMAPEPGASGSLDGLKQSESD

[2] = biological target: [^3 H]-LTB4 binding to receptors on human neutrophils (Homo sapiens, UniProt Q15722); test: biochemical; details: [^3 H]-LTB4 2.65 nM (20 μl), 4° C., 10 minutes
Sequence of [^3 H]-LTB4 binding to receptors on human neutrophils (Q15722 whole entry): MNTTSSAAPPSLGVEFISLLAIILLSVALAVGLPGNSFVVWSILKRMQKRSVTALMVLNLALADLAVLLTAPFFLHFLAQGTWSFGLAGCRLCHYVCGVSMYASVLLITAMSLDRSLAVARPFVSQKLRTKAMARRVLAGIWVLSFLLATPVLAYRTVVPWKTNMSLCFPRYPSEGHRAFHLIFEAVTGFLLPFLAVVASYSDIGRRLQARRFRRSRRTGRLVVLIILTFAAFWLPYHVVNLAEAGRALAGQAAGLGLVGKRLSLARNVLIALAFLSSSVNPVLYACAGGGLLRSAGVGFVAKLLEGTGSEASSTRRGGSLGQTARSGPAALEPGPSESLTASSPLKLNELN
Experimental: The effectiveness of the compounds of the present invention to inhibit binding of [^3 H]-LTB4 to human neutrophils was measured by using an adaptation of a radioligand binding assay developed by Goldman, D. W. and Goetzl, E. J.: Specific binding of leukotriene B4 to receptors on human polymornuclear leukocytes. J. Immunol. 129: 1600-1604(1982). Heparinized venous blood was drawn from normal human volunteers and neutrophils isolated by standard techniques of Ficoll-Hypaque centrifugation, dextran 70 sedimentation and hypotonic lysis. […] The binding assay was carried out in silanized 12×75 mm glass tubes by adding in the following order: 10 μl DMSO containing different amounts of test compound,20 μl of 2.65 nM [^3 H]-LTB4 and 500 μl of the cells suspended in Hanks' balanced salt solution containing 0.1% ovalbumin (2×10^7 cells/ml). Tubes were incubated at 4° C. for 10 minutes and the reaction terminated by isolating the cells with a Brandel MB-48R harvester. Radioactivity bound to the cells was measured by scintillation spectrometry. Nonspecific binding was determined by measuring the amount of label bound when a greater than 2000-fold excess of nonradioactive ligand was added. Appropriate corrections for nonspecific binding were made when analyzing the data.

Ki [1] [nM]	IC50 [2] [nM]	SMILES
110		CCc1cc(OCc2ccc(F)cc2)c(O)cc1OCCCCCC(C)(C)c1nn[nH]n1 [sodium salt]
219	885	CCc1cc(Sc2ccccc2)c(O)cc1OCCCCCC(C)(C)c1nn[nH]n1 [disodium salt]
74.1		CCc1cc(OCCC(C)C)c(O)cc1OCCCCCC(C)(C)c1nn[nH]n1 [sodium salt]
1.51	2.9	CCCc1c(OCCCOc2cc(O)c(OC)cc2CC)ccc2c1OC(C(=O)O)CC2 (stereo not shown) [Example 9, 3,4-Dihydro-8-propyl-7-[3-(2-ethyl-5-hydroxy-4-methoxy-phenoxy)propoxy]-2H-1-benzopyran-2-carboxylic acid]

Continued, compound first:

SMILES	Ki [1] [nM]	IC50 [2] [nM]
CCOc1cc(CC)c(OCCCCCC(C)(C)c2nn[nH]n2)cc1O [sodium salt]	12.3	
CCc1cc(OC(C)C)c(O)cc1OCCCCCC(C)(C)c1nn[nH]n1 [sodium salt]	40.7	
CCCCCOc1cc(CC)c(OCCCCCC(C)(C)c2nn[nH]n2)cc1O [sodium salt]	21.4	
CCCc1c(OCCCOc2cc(O)c(OCC)cc2CC)ccc2c1OC(C(=O)O)CC2 (stereo not shown) [Example 10, 3,4-Dihydro-8-propyl-7-[3-(2-ethyl-5-hydroxy-4-ethoxy-phenoxy)propoxy]-2H-1-benzopyran-2-carboxylic acid]	1.29	4.2
CCc1cc(OC2CCCC2)c(O)cc1OCCCCCC(C)(C)c1nn[nH]n1 [sodium salt]	77.6	
CCc1cc(OC)c(O)cc1OCCCCCC(C)(C)c1nn[nH]n1 [sodium salt]	22.9	
